Measurements: ChEMBL document CHEMBL4118196, “Design and synthesis of a series of bioavailable fatty acid synthase (FASN) KR domain inhibitors for cancer therapy” (Bioorg Med Chem Lett, 2018)

Legend:
[1] = target: Cytochrome P450 2C9 (Homo sapiens, UniProt P11712); assay: Inhibition of human CYP2C9; type: ADME
[2] = test system: LNCaP; assay: Antiproliferative activity against human LNCAP cells in culture medium with 10% lipid-reduced serum after 4 days by ATP-Glo assay; type: functional, cell-based; conditions: 96 h
[3] = test system: PC-3M; assay: Antiproliferative activity against human PC3M cells in culture medium with 10% lipid-reduced serum after 4 days by ATP-Glo assay; type: functional, cell-based; conditions: 96 h
[4] = target: Cytochrome P450 2C8 (Homo sapiens, UniProt P10632); assay: Inhibition of human CYP2C8; type: ADME
[5] = Half life in mouse at 10 mg/kg, po; type: ADME, organism-based; conditions: in vivo
[6] = Cmax in mouse at 10 mg/kg, po; type: ADME, organism-based; design: dose 10 mg/kg, route oral; conditions: in vivo
[7] = test system: HL-60; assay: Antiproliferative activity against human HL60 cells in culture medium with 10% lipid-reduced serum after 4 days by ATP-Glo assay; type: functional, cell-based; conditions: HL-60, 96 h
[8] = test system: NCI-H929; assay: Antiproliferative activity against human NCI-H929 cells in culture medium with 10% lipid-reduced serum after 4 days in presence of palmitate by ATP-Glo assay; type: functional, cell-based; conditions: NCI-H929, 96 h
[9] = test system: HT-29; assay: Antiproliferative activity against human HT-29 cells in culture medium with 10% lipid-reduced serum after 4 days by ATP-Glo assay; type: functional, cell-based; conditions: HT-29, 96 h
[10] = test system: NCI-H929; assay: Antiproliferative activity against human NCI-H929 cells in culture medium with 10% lipid-reduced serum after 4 days by ATP-Glo assay; type: functional, cell-based; conditions: NCI-H929, 96 h
[11] = test system: U-266; assay: Antiproliferative activity against human U266 cells in culture medium with 10% lipid-reduced serum after 4 days in presence of palmitate by ATP-Glo assay; type: functional, cell-based; conditions: U-266, 96 h
[12] = test system: BT-20; assay: Antiproliferative activity against human BT20 cells in culture medium with 10% lipid-reduced serum after 4 days in presence of palmitate by ATP-Glo assay; type: functional, cell-based; conditions: BT-20, 96 h
[13] = Protein binding in mouse plasma; type: ADME, cell-free; conditions: read-out: PPB (converted)
[14] = target: Cytochrome P450 1A2 (Homo sapiens, UniProt P05177); assay: Inhibition human CYP1A2; type: ADME
Cytochrome P450 1A2, sequence (P05177 whole entry): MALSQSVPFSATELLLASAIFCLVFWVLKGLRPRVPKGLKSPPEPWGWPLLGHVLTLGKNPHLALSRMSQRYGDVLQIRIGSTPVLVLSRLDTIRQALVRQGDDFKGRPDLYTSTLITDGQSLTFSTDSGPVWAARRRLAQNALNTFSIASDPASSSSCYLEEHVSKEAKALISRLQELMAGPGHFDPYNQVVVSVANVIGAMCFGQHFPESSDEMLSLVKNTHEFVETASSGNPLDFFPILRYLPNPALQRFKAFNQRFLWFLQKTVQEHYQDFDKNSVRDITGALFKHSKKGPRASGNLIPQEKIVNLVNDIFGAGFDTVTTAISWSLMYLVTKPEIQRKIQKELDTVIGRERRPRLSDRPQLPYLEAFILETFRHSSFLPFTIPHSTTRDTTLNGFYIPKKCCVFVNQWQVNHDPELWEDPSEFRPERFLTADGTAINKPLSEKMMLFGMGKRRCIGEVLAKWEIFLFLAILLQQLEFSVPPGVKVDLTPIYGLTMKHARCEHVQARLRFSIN

[15] = test system: MDA-MB-468; assay: Antiproliferative activity against human MDA-MB-468 cells in culture medium with 10% lipid-reduced serum after 4 days by ATP-Glo assay; type: functional, cell-based; conditions: MDA-MB-468, 96 h
[16] = target: Cytochrome P450 2C19 (Homo sapiens, UniProt P33261); assay: Inhibition of human CYP2C19; type: ADME
Cytochrome P450 2C19, sequence (P33261 whole entry): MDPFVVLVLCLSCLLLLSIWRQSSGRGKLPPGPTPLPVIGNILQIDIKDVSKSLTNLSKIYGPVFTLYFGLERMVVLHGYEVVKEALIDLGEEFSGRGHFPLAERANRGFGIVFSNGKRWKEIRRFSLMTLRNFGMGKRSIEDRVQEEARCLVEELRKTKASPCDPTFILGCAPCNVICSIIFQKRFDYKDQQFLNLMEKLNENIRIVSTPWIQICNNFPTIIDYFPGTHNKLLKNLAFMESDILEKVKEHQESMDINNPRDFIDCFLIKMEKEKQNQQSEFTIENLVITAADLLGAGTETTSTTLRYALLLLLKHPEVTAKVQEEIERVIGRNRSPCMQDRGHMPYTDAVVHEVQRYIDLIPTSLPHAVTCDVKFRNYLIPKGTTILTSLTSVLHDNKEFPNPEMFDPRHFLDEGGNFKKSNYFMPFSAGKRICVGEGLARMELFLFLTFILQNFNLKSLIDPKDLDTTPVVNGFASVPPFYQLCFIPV

[17] = test system: K562; assay: Antiproliferative activity against human K562 cells in culture medium with 10% lipid-reduced serum after 4 days in presence of palmitate by ATP-Glo assay; type: functional, cell-based; conditions: K562, 96 h
[18] = test system: MV4-11; assay: Antiproliferative activity against human MV4-11 cells in culture medium with 10% lipid-reduced serum after 4 days in presence of palmitate by ATP-Glo assay; type: functional, cell-based; conditions: MV4-11, 96 h
[19] = test system: A549; assay: Antiproliferative activity against human A549 cells in culture medium with 10% lipid-reduced serum after 4 days by ATP-Glo assay; type: functional, cell-based; conditions: A549, 96 h
[20] = test system: NCI-H460; assay: Antiproliferative activity against human NCI-H460 cells in culture medium with 10% lipid-reduced serum after 4 days in presence of palmitate by ATP-Glo assay; type: functional, cell-based; conditions: NCI-H460, 96 h
[21] = test system: HL-60; assay: Antiproliferative activity against human HL60 cells in culture medium with 10% lipid-reduced serum after 4 days in presence of palmitate by ATP-Glo assay; type: functional, cell-based; conditions: HL-60, 96 h
[22] = Stability in mouse microsomes; type: ADME, Microsome
[23] = test system: K562; assay: Antiproliferative activity against human K562 cells in culture medium with 10% lipid-reduced serum after 4 days by ATP-Glo assay; type: functional, cell-based; conditions: K562, 96 h
[24] = Antiproliferative activity against human MM1R cells in culture medium with 10% lipid-reduced serum after 4 days by ATP-Glo assay; type: functional, cell-based; conditions: MM.1R, 96 h
[25] = Tmax in mouse at 10 mg/kg, po; type: ADME, organism-based; conditions: in vivo
[26] = test system: MV4-11; assay: Antiproliferative activity against human MV4-11 cells in culture medium with 10% lipid-reduced serum after 4 days by ATP-Glo assay; type: functional, cell-based; conditions: MV4-11, 96 h
[27] = target: Cytochrome P450 3A4 (Homo sapiens, UniProt P08684); assay: Inhibition of human CYP3A4; type: ADME
Cytochrome P450 3A4, sequence (P08684 whole entry): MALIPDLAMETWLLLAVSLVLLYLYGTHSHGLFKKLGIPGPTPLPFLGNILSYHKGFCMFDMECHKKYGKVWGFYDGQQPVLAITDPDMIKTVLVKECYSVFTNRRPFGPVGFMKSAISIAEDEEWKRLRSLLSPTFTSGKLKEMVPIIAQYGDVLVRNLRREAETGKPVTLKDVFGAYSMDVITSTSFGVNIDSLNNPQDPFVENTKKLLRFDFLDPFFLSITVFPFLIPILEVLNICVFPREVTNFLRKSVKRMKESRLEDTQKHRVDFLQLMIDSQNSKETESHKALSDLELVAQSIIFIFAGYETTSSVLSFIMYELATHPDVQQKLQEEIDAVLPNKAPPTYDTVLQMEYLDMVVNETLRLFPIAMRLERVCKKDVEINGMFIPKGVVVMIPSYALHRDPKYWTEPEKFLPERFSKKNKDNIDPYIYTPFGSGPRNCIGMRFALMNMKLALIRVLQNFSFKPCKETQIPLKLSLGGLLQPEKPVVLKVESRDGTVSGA

[28] = Antiproliferative activity against human LL cells in culture medium with 10% lipid-reduced serum after 4 days by ATP-Glo assay; type: functional, cell-based; conditions: 96 h
[29] = Antiproliferative activity against human LL cells in culture medium with 10% lipid-reduced serum after 4 days in presence of palmitate by ATP-Glo assay; type: functional, cell-based; conditions: 96 h
[30] = Permeability in human Caco2 cells; type: ADME, cell-based; conditions: Caco-2, read-out: permeability
[31] = test system: U2932; assay: Antiproliferative activity against human U2932 cells in culture medium with 10% lipid-reduced serum after 4 days by ATP-Glo assay; type: functional, cell-based; conditions: U2932, 96 h
[32] = Antiproliferative activity against human MM1R cells in culture medium with 10% lipid-reduced serum after 4 days in presence of palmitate by ATP-Glo assay; type: functional, cell-based; conditions: MM.1R, 96 h
[33] = test system: A2780; assay: Antiproliferative activity against human A2780 cells in culture medium with 10% lipid-reduced serum after 4 days by MTT assay; type: functional, cell-based; conditions: A2780, 96 h
[34] = Oral bioavailability in mouse at 10 mg/kg; type: ADME, organism-based; conditions: in vivo
[35] = test system: A549; assay: Antiproliferative activity against human A549 cells in culture medium with 10% lipid-reduced serum after 4 days in presence of palmitate by ATP-Glo assay; type: functional, cell-based; conditions: A549, 96 h
[36] = test system: OCI-Ly1; assay: Antiproliferative activity against human OCI-LY1 cells in culture medium with 10% lipid-reduced serum after 4 days in presence of palmitate by ATP-Glo assay; type: functional, cell-based; conditions: OCI-Ly1, 96 h
[37] = AUC in mouse at 10 mg/kg, po; type: ADME, organism-based; conditions: in vivo
[38] = test system: MDA-MB-468; assay: Antiproliferative activity against human MDA-MB-468 cells in culture medium with 10% lipid-reduced serum after 4 days in presence of palmitate by ATP-Glo assay; type: functional, cell-based; conditions: MDA-MB-468, 96 h
[39] = test system: NCI-H460; assay: Antiproliferative activity against human NCI-H460 cells in culture medium with 10% lipid-reduced serum after 4 days by ATP-Glo assay; type: functional, cell-based; conditions: NCI-H460, 96 h
[40] = target: Cytochrome P450 2D6 (Homo sapiens, UniProt P10635); assay: Inhibition of human CYP2D6; type: ADME
Cytochrome P450 2D6, sequence (P10635 whole entry): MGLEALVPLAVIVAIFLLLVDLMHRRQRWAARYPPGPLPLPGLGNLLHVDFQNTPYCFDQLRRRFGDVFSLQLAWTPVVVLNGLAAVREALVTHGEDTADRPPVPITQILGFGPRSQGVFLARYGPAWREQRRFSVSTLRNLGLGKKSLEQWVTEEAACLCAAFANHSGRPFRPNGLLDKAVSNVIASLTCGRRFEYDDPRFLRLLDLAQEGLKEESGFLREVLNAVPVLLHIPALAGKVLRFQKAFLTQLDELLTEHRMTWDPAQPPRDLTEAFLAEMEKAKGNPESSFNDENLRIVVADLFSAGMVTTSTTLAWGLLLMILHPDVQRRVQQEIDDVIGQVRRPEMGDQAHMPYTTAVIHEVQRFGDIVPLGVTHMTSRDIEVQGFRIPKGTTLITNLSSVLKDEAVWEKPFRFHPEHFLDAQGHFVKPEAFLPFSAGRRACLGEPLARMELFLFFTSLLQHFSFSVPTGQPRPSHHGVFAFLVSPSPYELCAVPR

[41] = Stability in mouse plasma; type: ADME, cell-free
[42] = test system: A2780; assay: Antiproliferative activity against human A2780 cells in culture medium with 10% lipid-reduced serum after 4 days in presence of palmitate by MTT assay; type: functional, cell-based; conditions: A2780, 96 h
[43] = test system: LP-1; assay: Antiproliferative activity against human LP-1 cells in culture medium with 10% lipid-reduced serum after 4 days in presence of palmitate by ATP-Glo assay; type: functional, cell-based; conditions: LP-1, 96 h
[44] = Protein binding in human plasma; type: ADME, cell-free; conditions: read-out: PPB (converted)
[45] = test system: OCI-Ly1; assay: Antiproliferative activity against human OCI-LY1 cells in culture medium with 10% lipid-reduced serum after 4 days by ATP-Glo assay; type: functional, cell-based; conditions: OCI-Ly1, 96 h
[46] = test system: U2932; assay: Antiproliferative activity against human U2932 cells in culture medium with 10% lipid-reduced serum after 4 days in presence of palmitate by ATP-Glo assay; type: functional, cell-based; conditions: U2932, 96 h
[47] = target: Fatty acid synthase (Homo sapiens, UniProt P49327)
Fatty acid synthase, sequence (P49327 whole entry): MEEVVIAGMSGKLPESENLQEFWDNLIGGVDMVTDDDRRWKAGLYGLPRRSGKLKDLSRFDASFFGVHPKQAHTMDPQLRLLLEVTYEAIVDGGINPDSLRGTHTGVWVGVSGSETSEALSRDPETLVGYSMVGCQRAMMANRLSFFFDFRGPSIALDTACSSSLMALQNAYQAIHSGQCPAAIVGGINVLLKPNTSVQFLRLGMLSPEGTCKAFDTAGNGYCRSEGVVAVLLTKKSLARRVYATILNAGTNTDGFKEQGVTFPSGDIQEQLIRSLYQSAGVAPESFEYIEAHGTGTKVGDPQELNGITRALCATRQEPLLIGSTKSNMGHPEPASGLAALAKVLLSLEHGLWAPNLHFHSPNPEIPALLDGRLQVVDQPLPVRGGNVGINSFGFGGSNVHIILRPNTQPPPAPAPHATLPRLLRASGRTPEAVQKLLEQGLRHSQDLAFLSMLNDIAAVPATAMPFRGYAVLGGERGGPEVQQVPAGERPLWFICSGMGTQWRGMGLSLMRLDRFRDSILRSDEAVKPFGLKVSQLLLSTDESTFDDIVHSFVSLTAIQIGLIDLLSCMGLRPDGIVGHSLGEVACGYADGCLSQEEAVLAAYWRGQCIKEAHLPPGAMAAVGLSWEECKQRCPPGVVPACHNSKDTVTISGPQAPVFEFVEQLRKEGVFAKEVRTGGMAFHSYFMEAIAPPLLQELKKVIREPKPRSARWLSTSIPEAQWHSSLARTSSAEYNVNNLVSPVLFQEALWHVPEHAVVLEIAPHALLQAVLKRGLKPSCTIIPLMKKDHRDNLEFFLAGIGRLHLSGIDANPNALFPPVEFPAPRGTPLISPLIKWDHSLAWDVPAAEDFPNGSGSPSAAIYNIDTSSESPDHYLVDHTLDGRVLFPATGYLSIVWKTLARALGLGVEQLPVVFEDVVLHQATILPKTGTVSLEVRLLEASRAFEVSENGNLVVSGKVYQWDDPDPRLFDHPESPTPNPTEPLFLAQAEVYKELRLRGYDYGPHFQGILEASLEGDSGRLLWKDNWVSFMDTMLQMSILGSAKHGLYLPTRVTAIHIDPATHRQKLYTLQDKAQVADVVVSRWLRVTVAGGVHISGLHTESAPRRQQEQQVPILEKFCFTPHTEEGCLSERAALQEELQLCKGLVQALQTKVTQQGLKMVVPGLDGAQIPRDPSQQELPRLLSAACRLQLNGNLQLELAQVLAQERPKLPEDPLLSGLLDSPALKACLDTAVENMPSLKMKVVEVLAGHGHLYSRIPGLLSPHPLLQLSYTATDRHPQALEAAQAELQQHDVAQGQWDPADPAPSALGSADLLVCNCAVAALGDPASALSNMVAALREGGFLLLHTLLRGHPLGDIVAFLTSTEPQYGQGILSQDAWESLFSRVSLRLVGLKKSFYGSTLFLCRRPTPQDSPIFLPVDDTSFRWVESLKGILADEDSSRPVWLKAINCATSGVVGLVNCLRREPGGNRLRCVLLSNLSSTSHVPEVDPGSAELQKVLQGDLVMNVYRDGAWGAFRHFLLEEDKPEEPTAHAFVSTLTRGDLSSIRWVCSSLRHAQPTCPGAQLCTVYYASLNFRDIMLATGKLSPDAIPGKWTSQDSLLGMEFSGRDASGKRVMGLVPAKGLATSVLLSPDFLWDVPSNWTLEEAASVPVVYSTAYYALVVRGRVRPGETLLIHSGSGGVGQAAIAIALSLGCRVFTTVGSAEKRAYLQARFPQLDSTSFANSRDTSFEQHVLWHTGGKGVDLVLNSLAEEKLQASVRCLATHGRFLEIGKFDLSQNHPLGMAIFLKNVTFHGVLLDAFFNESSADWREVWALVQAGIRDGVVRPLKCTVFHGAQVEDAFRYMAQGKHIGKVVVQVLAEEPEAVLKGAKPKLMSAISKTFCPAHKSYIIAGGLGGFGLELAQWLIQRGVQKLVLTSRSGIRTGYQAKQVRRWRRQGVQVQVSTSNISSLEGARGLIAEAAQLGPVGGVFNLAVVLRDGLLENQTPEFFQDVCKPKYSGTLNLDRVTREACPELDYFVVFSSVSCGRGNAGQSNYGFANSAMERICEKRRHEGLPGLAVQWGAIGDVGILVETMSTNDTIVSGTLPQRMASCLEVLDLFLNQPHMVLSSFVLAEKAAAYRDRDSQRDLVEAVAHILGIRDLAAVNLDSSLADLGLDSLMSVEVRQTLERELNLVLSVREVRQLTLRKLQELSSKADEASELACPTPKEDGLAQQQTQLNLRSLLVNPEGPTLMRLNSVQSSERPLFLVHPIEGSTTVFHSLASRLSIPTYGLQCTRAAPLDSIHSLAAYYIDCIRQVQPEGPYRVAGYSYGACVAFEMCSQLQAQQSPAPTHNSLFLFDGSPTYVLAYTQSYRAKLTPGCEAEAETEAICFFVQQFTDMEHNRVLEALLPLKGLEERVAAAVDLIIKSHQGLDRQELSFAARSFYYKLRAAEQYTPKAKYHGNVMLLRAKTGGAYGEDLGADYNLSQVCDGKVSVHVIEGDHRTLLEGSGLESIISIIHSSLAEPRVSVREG
Description: Inhibition of human full length FASN using [3H]-acetyl-CoA/malonyl-CoA as substrate after 60 mins in presence of NADPH by scintillation proximity assay

Cytochrome P450 2C9, sequence (P11712 whole entry): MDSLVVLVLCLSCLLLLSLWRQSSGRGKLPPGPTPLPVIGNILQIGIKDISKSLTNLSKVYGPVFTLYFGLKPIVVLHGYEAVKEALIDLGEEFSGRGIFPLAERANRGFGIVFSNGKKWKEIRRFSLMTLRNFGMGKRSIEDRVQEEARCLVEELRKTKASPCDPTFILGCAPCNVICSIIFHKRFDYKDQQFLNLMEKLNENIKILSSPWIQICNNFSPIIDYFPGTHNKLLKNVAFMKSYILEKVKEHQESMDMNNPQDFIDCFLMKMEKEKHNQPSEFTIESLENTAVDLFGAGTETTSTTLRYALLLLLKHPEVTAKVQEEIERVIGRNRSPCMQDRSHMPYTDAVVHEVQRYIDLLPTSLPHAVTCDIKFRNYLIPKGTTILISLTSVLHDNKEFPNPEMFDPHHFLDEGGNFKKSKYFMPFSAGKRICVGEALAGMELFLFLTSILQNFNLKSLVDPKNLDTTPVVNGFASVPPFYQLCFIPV

Cn1cc(-c2ccc(-c3ccc(C4=NC5(CC5)C(=O)N4C[C@@H]4CCN(C(=O)C5CC5)C4)cc3)cc2)cn1
IC50 [1]: 7900 nM
EC50 [2]: 66 nM
EC50 [3]: 25 nM
IC50 [4]: > 10000 nM
half-life [5]: 2.5 h
Cmax [6]: 2030 ng/mL
EC50 [7]: 120 nM
EC50 [8]: > 10000 nM
EC50 [9]: 7940 nM
EC50 [10]: 3720 nM
EC50 [11]: > 10000 nM
EC50 [12]: > 10000 nM
fraction unbound [13]: 0.034
IC50 [14]: > 10000 nM
EC50 [15]: 26 nM
IC50 [16]: > 10000 nM
EC50 [17]: 9330 nM
EC50 [18]: > 10000 nM
EC50 [19]: 20 nM
EC50 [20]: > 10000 nM
EC50 [21]: 6310 nM
Stability [22]: Stable
EC50 [23]: 110 nM
EC50 [24]: 170 nM
Tmax [25]: 2 h
EC50 [26]: 59 nM
IC50 [27]: > 10000 nM
EC50 [28]: 590 nM
EC50 [29]: 9330 nM
Papp [30]: 7.1 ×10⁻⁶ cm/s
EC50 [31]: 190 nM
EC50 [32]: > 10000 nM
EC50 [33]: 13 nM
bioavailability [34]: 60.6%
EC50 [35]: > 10000 nM
EC50 [36]: 6760 nM
AUC [37]: 11100 ng·h/mL
EC50 [38]: > 10000 nM
EC50 [39]: 36 nM
IC50 [40]: > 10000 nM
Stability [41]: Stable
EC50 [42]: > 10000 nM
EC50 [43]: > 10000 nM
fraction unbound [44]: 0.059
EC50 [45]: 55 nM
EC50 [46]: 3020 nM

O=C([C@H]1CCCO1)N1CC[C@@H](CN2C(=O)C3(CC3)N=C2c2ccc(-c3ccc4occc4c3)cc2)C1
IC50 [47]: 300 nM

O=C(N1CC[C@@H](CN2C(=O)C3(CC3)N=C2c2ccc(-c3ccc4occc4c3)cc2)C1)C1(O)CC1
IC50 [47]: 36 nM

O=C(CC(F)(F)F)N1CC[C@@H](CN2C(=O)C3(CC3)N=C2c2ccc(-c3ccc4occc4c3)cc2)C1
IC50 [47]: 170 nM

O=C(C1CC1)N1CC[C@@H](CN2C(=O)C3(CC3)N=C2c2ccc(-c3ccc(-c4ccncc4)cc3)cc2)C1
IC50 [47]: 23 nM

Cn1ccc(C(=O)N2CC[C@@H](CN3C(=O)C4(CC4)N=C3c3ccc(-c4ccc5occc5c4)cc3)C2)n1
IC50 [47]: 450 nM

CC1(C(=O)N2CC[C@@H](CN3C(=O)C4(CC4)N=C3c3ccc(-c4ccc5occc5c4)cc3)C2)CC1
IC50 [47]: 28 nM

Cn1ncc2cc(-c3cnc(C4=NC5(CC5)C(=O)N4C[C@@H]4CCN(C(=O)C5CC5)C4)nc3)ccc21
IC50 [47]: 33100 nM

O=C([C@@H]1CCCO1)N1CC[C@@H](CN2C(=O)C3(CC3)N=C2c2ccc(-c3ccc4occc4c3)cc2)C1
IC50 [47]: 79 nM

N#CC1(C(=O)N2CC[C@@H](CN3C(=O)C4(CC4)N=C3c3ccc(-c4ccc5occc5c4)cc3)C2)CC1
IC50 [47]: 590 nM
